# In paper PMC8769072, “Proteome‐scale mapping of binding sites in the unstructured regions of the human proteome” (Molecular Systems Biology, 2022):
# Test system: immobilized GST-tagged bait protein domains
# Assay: ProP-PD phage selections (HD2 P8, sublibraries, HD2 P3, HD1 P8) with NGS and confidence level
# Assay type: binding, human
# Conditions: for HD2_endomembrane confidence: HD2 P8 endomembrane sublibrary
# [1] = HD2 library, bait SUMO1_SUMO__P63165_1_101, known motif instance of the benchmarking set found (TRUE) or not found (FALSE) among selected peptides
# [2] = bait OXSR1___O95747_434_527, HD2 library, whether the validated benchmark motif instance was recovered in the ProP-PD selection (TRUE/FALSE)
# [3] = bait CRK_SH3_1_P46108_124_198, library HD2, benchmarking set of validated motif instances, TRUE = motif instance recovered in the ProP-PD selection
# [4] = bait MAP1LC3A_ATG8__Q9H492_2_121, confidence level (4 = High, 2-3 = Medium, 1 = Low)
# [5] = bait MAP1LC3A_ATG8 (Q9H492 2-121), HD2 library, benchmark motif instance recovered in the ProP-PD selection (TRUE/FALSE)
# [6] = bait MAP1LC3A_ATG8 (Q9H492 2-121), HD2 library, confidence level (1-4) of best matching peptide
# [7] = bait MAP1LC3A_ATG8 (Q9H492 2-121), HD2 library, specificity score of best matching peptide
substance,measurement,setting,value
VEVIDLTIESSSDEED,best_confidence,"bait SUMO1_SUMO__P63165_1_101, HD2 library, confidence level (1-4) of best matching selected peptide",4
same,best_specificity,"bait SUMO1_SUMO__P63165_1_101, HD2 library, specificity score of best matching selected peptide",1
same,motif_found,"bait SUMO1_SUMO__P63165_1_101, HD2 library, whether the validated benchmark motif instance was recovered in the ProP-PD selection (TRUE/FALSE)",TRUE
VFPRPVLPSLTVSRVI,HD2 confidence,"bait ANKRA2_Ank__Q9H9E1_142_313, library HD2 P8",4
same,HD2_nc confidence,"bait ANKRA2_Ank__Q9H9E1_142_313, library HD2 P8 nucleocytoplasmic",3
same,HD2_nc count proportions,"bait ANKRA2_Ank__Q9H9E1_142_313, library HD2 P8 nucleocytoplasmic, mean normalised NGS counts",0.003084
same,HD2_nc mean counts,"bait ANKRA2_Ank__Q9H9E1_142_313, library HD2 P8 nucleocytoplasmic, mean raw NGS counts, all selections",216.6
VGDTSRGQVIIISDSDDDDDERILSLEK,motif_found,[1],FALSE
VGRFQVTSSKEPAEPL,best_confidence,"bait OXSR1___O95747_434_527, HD2 library, confidence level (1-4) of best matching selected peptide",4
same,best_specificity,"bait OXSR1___O95747_434_527, HD2 library, specificity score of best matching selected peptide",1
same,motif_found,[2],TRUE
VGSQADTNVIDLTGDDKDDL,motif_found,[1],FALSE
VIGSADCNVIEIDDTLDDSDED,motif_found,[1],FALSE
VLGDQRRPSLPALHFIKGAGKK,motif_found,"library HD2, bait ANKRA2_Ank__Q9H9E1_142_313, motif instance NOT in library (in_library_check FALSE, in_library_coverage 0)",FALSE
VMSLPKLQQVPGLHPQ,HD confidence,"bait ANKRA2_Ank__Q9H9E1_142_313, library HD",3
same,HD count proportions,"bait ANKRA2_Ank__Q9H9E1_142_313, library HD, mean normalised NGS counts",0.003008
same,HD mean counts,"bait ANKRA2_Ank__Q9H9E1_142_313, library HD, mean raw NGS counts, all selections",34.0
VPNVHAAEFVPSFLRG,best_confidence,"bait PABP-B_PABP__P11940_544_623, HD2 library, confidence level (1-4) of best matching selected peptide",4
same,best_specificity,"bait PABP-B_PABP__P11940_544_623, HD2 library, specificity score of best matching selected peptide",1
same,motif_found,"bait PABP-B_PABP__P11940_544_623, HD2 library, whether the validated benchmark motif instance was recovered in the ProP-PD selection (TRUE/FALSE)",TRUE
VPSPASLWPPPPSPAPSST,motif_found,"library HD2, bait VASP_EVH1__P50552_1_114, validated benchmark motif instance, in_library_check TRUE, TRUE/FALSE = instance recovered in ProP-PD selection",FALSE
VPTLPPKQQFLPSSPG,HD2_nc confidence,"bait CRK_SH3_1_P46108_124_198, HD2 P8 nucleocytoplasmic sublibrary, confidence level (4 = High, 2-3 = Medium, 1 = Low)",4
same,HD2_nc mean counts,"bait CRK_SH3_1_P46108_124_198, HD2 P8 nucleocytoplasmic sublibrary, mean NGS counts over replicate selections",1917.0
same,HD2_nc count proportions,"bait CRK_SH3_1_P46108_124_198, HD2 P8 nucleocytoplasmic sublibrary, mean proportion of NGS counts",0.01185
VQPKQDAFANFANFSK,HD confidence,"bait AP2B1_adaptin__P63010_700_937, library HD",2
same,HD count proportions,"bait AP2B1_adaptin__P63010_700_937, library HD, mean normalised NGS counts",0.0004926
same,HD mean counts,"bait AP2B1_adaptin__P63010_700_937, library HD, mean raw NGS counts, all selections",1.25
VSGSHCTPPPPYHADP,best_confidence,"library HD2, bait YAP1_WW_1_P46937_169_207, confidence level of best matching selected peptide (4 High, 2-3 Medium, 1 Low)",4
same,best_specificity,"library HD2, bait YAP1_WW_1_P46937_169_207, specificity score of best matching selected peptide",0.99
same,motif_found,"library HD2, bait YAP1_WW_1_P46937_169_207, validated benchmark motif instance, in_library_check TRUE, TRUE/FALSE = instance recovered in ProP-PD selection",TRUE
VSPSTSY,motif_found,"library HD2, bait USP7_MATH-TRAF__Q93009_53_206, validated benchmark motif instance, in_library_check TRUE, TRUE/FALSE = instance recovered in ProP-PD selection",FALSE
VSSAAPSPRGCADGRDADPTEE,motif_found,"HD2 library, bait TNKS_TANK-peptide-bind__O95271_174_649, known motif instance of the benchmarking set found (TRUE) or not found (FALSE) among selected peptides",FALSE
VSVDSIPLEWDHTGDVGGSSSHE,motif_found,"library HD2, bait KLC1_TPR__Q07866_203_497, whether the validated benchmark motif instance was recovered in the ProP-PD selection (TRUE/FALSE)",FALSE
VVDNSPPPALPPKKRQSAPS [RAPGEF1],motif_found,[3],FALSE
VVHSAGRRFIVSPVPESRL,motif_found,[2],FALSE
WADFSSTWPTSTNEKP,HD2_endomembrane confidence,"bait AP2B1_adaptin__P63010_700_937, confidence level (4 = High, 2-3 = Medium, 1 = Low)",4
WAKFSNDNIKHSQNMR,HD confidence,"bait AP2B1_adaptin__P63010_700_937, HD1 P8 library, confidence level (4 = High, 2-3 = Medium, 1 = Low)",4
same,HD mean counts,"bait AP2B1_adaptin__P63010_700_937, HD1 P8 library, mean NGS counts over replicate selections",1.5
same,HD count proportions,"bait AP2B1_adaptin__P63010_700_937, HD1 P8 library, mean proportion of NGS counts",0.0005262
WEALNDSVKTSMHWVV,HD2-1mM_CaCl confidence,"bait CALM1 EF-hand (P0DP23, 2-149), HD2 library selection with 1mM_CaCl, confidence level (4 = High, 2 or 3 = Medium, 1 = Low)",2
same,HD2 confidence,"bait CALM1 EF-hand (P0DP23, 2-149), HD2 library selection, confidence level (4 = High, 2 or 3 = Medium, 1 = Low)",3
WEMVPRHSSWGDVGVG,HD2_endomembrane confidence,[4],4
WNERQPAPALPPKPPKPTTV [PIK3R1],motif_found,[3],TRUE
WQPFPDDHSACLRPGS,HD2 confidence,"bait AP2B1_adaptin__P63010_700_937, HD2 P8 selection, non primary paralogue peptide match, confidence level -4 to 4: 4 = High, 3 or 2 = Medium, 1 = Low, 0 = Filtered/Noise",3
WRVLGLCLLSVGVWGQ,HD2_cytoplasm confidence,"bait CALM1_EF-hand__P0DP23_2_149, HD2 P8 cytoplasm sublibrary, confidence level (4 = High, 2-3 = Medium, 1 = Low)",3
WTHLSSKEVDPSTGEL,motif_found,[5],TRUE
same,best_confidence,[6],4
same,best_specificity,[7],1
same,motif_found,"bait MAP1LC3B_ATG8 (Q9GZQ8 2-119), HD2 library, benchmark motif instance recovered in the ProP-PD selection (TRUE/FALSE)",TRUE
same,best_confidence,"bait MAP1LC3B_ATG8 (Q9GZQ8 2-119), HD2 library, confidence level (1-4) of best matching peptide",3
same,best_specificity,"bait MAP1LC3B_ATG8 (Q9GZQ8 2-119), HD2 library, specificity score of best matching peptide",1
WTMVDENFSTLSLTQS,HD2_endomembrane confidence,[4],4
WVELPMNSSNGNDNGN,motif_found,[5],TRUE
same,best_confidence,[6],2
same,best_specificity,[7],1
YAKKVGYTPDWIFLLRNVMRI [CLTC 511-517],motif_found,"HD2 library, bait MAP1LC3A_ATG8__Q9H492_2_121, benchmark motif instance, in_library_check FALSE, in_library_coverage 0",FALSE
same,motif_found,"HD2 library, bait MAP1LC3B_ATG8__Q9GZQ8_2_119, benchmark motif instance, in_library_check FALSE, in_library_coverage 0",FALSE
YDREFLLDFQFMPACI,best_specificity,"library HD2, bait EIF4E_eIF4E__P06730_1_217, best matching peptide",1
same,best_confidence,"library HD2, bait EIF4E_eIF4E__P06730_1_217, confidence level of best matching peptide (4 High, 2-3 Medium, 1 Low)",2
same,motif_found,"library HD2, bait EIF4E_eIF4E__P06730_1_217, whether the validated benchmark motif instance was recovered in the ProP-PD selection (TRUE/FALSE)",TRUE
YRLARQRIIQFQARCRAYLVRKAFRHRLWAV [MYO7A 817-833],motif_found,"HD2 library, bait CALM1_EF-hand__P0DP23_2_149, benchmark motif instance, in_library_check FALSE, in_library_coverage 0",FALSE
YSFFSPSPARKRHAPSPEPAV,motif_found,"bait KPNA4_Arm (O00629 68-487), HD2 library, benchmark motif instance recovered in the ProP-PD selection (TRUE/FALSE)",FALSE
YTSPSLPNISLGLQAT,best_specificity,"bait ANKRA2_Ank__Q9H9E1_142_313, library HD2, best matching peptide",1
same,best_confidence,"bait ANKRA2_Ank__Q9H9E1_142_313, library HD2, confidence level of best matching peptide (4 = High, 2 or 3 = Medium, 1 = Low)",4
